Test results taken from US8057829B2, “Methods for repelling insects using sesquiterpene hydrocarbons and their derivatives” (Sterling International Inc., priority 2008, dated 2011).

Tests used:
Phlebotomus papatasi = assay: Y-tube olfactometer behavioral bioassay (spatial repellency); type: in vivo; settings: for SAI (Spatial Activity Index): Phlebotomus papatasi; for Number of mosquitoes in each arm: Repellent: Phlebotomus papatasi (sand fly) females, release rate per chemical (1-35 mg/day); for Number of mosquitoes in each arm: Repellent / Number of mosquitoes in each arm: Blank / Number of mosquitoes in each arm: Bottom: 10 min; for Number of mosquitoes in each arm: Blank / Number of mosquitoes in each arm: Bottom: Phlebotomus papatasi females, release rate per chemical
In short: (§1)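 Female insects (25-40 per run; mosquitoes 6-10 days old, sand flies 3-10 days) released into a CO2-baited Y-tube holding a treatment dispenser in one arm and a blank in the other; arm counts taken after 10 min at 23-25° C. Arms swapped in a repeat run; pooled data tested by χ2 (df=1).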

Anopheles stephensi = assay: as above; type: in vivo; settings: for Number of mosquitoes in each arm: Repellent / Number of mosquitoes in each arm: Blank / Number of mosquitoes in each arm: Bottom: Anopheles stephensi females; for SAI (Spatial Activity Index): Anopheles stephensi
In short: as §1

[1] = test system: antennae of housefly, sand fly, and mosquitoes Aedes aegypti, Anopheles gambiae, Anopheles stephensi; assay: GC-EAD antennal responses to SPME samples of clove essential oil; settings: component of clove essential oil SPME sample; response by one or more of the insects; FIG. 1
Description: The GC-EAD antennal response of a female housefly (Musca domestica), sand fly (Phlebotomus papatasi), and mosquitoes including the species Aedes aegypti, Anopheles gambiae, and Anopheles stephensi were tested with clove essential oil. FIG. 1 is a simultaneous recording of GC flame ionization detection (FID) and electroantennographic detection (EAD) of the insect antennae to solid phase microextraction (SPME: CAR/PDMS) samples of clove essential oil in a 20 ml glass vial for 20 sec.
(§2) The following procedures were employed to test the EAD response of an insect antenna to a repellent compound. The GC-EAD technique provides an efficient tool for screening behaviorally active repellents. Several synthetic mixtures of potential insect repellent candidates, mostly sesquiterpene hydrocarbons and derivatives, were analyzed in splitless mode using a Varian CP-3800 GC equipped with a polar column (Innowax; 1.0 μm film thickness, 30 m×0.53 mm ID; J & W Scientific), and a 1:1 effluent splitter that allowed simultaneous flame ionization detection (FID) and EAD of the separated volatile compounds. Helium was used as the carrier gas, and the injector temperature was 220° C. The column temperature was 50° C. for 2 min, rising to 240° C. at 10° C./min, then held for 10 min. The outlet for the EAD was held in a humidified air stream flowing at 0.5 liter/min. over an antennal preparation. A glass capillary indifferent electrode filled with Beadle-Ephrussi Ringer, and grounded via a silver wire, was inserted into the severed insect's head with the antennae. A similar recording electrode connected to a high-impedance DC amplifier with automatic baseline drift compensation was placed in contact with the distal end of one antenna (Zhang et al., Chemoecology, 10:69-80 (2000)). The antennal signals were stored and analyzed on a PC equipped with a serial IDAC interface box and the program EAD ver. 2.5 (Syntech, Hilversum, The Netherlands). The compound 1-octen-3-ol (known attractant for many flies and mosquitoes) was included in most of the synthetic mixtures, as a positive control. […]

[2] = test system: antennae of Musca domestica, Lucillia sericata, Sarcophaga sp., Muscina stabulans, Culex pipiens, Aedes increpitus; assay: GC-EAD responses of several flies and two mosquitoes to a synthetic mixture; settings: about 100 ng of each compound, FIG. 6
Description: The GC-EAD responses of several species of flies and two species of mosquito antennae were tested on a synthetic mixture of 1-octen-3-ol, linalool, two representative sesquiterpene hydrocarbons, β-caryophyllene and α-humulene, ZE-nepetalactone, EZ-nepetalactone, and two known insect repellents, DEET, and SS220, with about 100 ng of each compound in the mixture. DEET and SS220 are used as positive controls in the experiment. The compound 1-octen-3-ol is a known attractant for the insects and is also used as a positive control. The insects tested are species of Musca domestica, Lucillia sericata, Sarcophaga sp., Muscina stabulans, Culex pipiens, and Aedes increpitus.
as §2, with “ver.” for “ver. 2.5 (Syntech, Hilversum, The Netherlands). The compound 1-octen-3-ol (known attractant for many flies and mosquitoes) was included in most of the synthetic mixtures, as a positive control.”

[3] = test system: antennae of housefly, sand fly, and mosquitoes (Aedes aegypti, Aedes increpitus, Anopheles gambiae); assay: GC-EAD antennal responses to SPME samples of patchouli essential oil; settings: component of patchouli essential oil SPME sample; response by one or more of the insects; FIG. 2
Description: The following procedures were employed to test the EAD response of an insect antenna to a repellent compound. The GC-EAD technique provides an efficient tool for screening behaviorally active repellents. Several synthetic mixtures of potential insect repellent candidates, mostly sesquiterpene hydrocarbons and derivatives, were analyzed in splitless mode using a Varian CP-3800 GC equipped with a polar column (Innowax; 1.0 μm film thickness, 30 m×0.53 mm ID; J & W Scientific), and a 1:1 effluent splitter that allowed simultaneous flame ionization detection (FID) and EAD of the separated volatile compounds. Helium was used as the carrier gas, and the injector temperature was 220° C. The column temperature was 50° C. for 2 min, rising to 240° C. at 10° C./min, then held for 10 min. The outlet for the EAD was held in a humidified air stream flowing at 0.5 liter/min. over an antennal preparation. A glass capillary indifferent electrode filled with Beadle-Ephrussi Ringer, and grounded via a silver wire, was inserted into the severed insect's head with the antennae. A similar recording electrode connected to a high-impedance DC amplifier with automatic baseline drift compensation was placed in contact with the distal end of one antenna (Zhang et al., Chemoecology, 10:69-80 (2000)). The antennal signals were stored and analyzed on a PC equipped with a serial IDAC interface box and the program EAD ver. 2.5 (Syntech, Hilversum, The Netherlands). The compound 1-octen-3-ol (known attractant for many flies and mosquitoes) was included in most of the synthetic mixtures, as a positive control.

[4] = release rate per chemical (1-60 mg/day; β-Caryophyllene 10 mg/day), 10 min
[5] = release rate per chemical (β-Caryophyllene 10 mg/day), 10 min

Structure (SMILES) | SAI (Spatial Activity Index) (Phlebotomus papatasi) | Number of mosquitoes in each arm: Repellent (Phlebotomus papatasi) | Number of mosquitoes in each arm: Blank (Phlebotomus papatasi) | Number of mosquitoes in each arm: Bottom (Phlebotomus papatasi) | Number of mosquitoes in each arm: Repellent (Anopheles stephensi; [4]) | Number of mosquitoes in each arm: Blank (Anopheles stephensi; [5]) | Number of mosquitoes in each arm: Bottom (Anopheles stephensi; [5]) | SAI (Spatial Activity Index) (Anopheles stephensi; β-Caryophyllene 10 mg/day) | GC-EAD antennal activity [1] | Number of mosquitoes in each arm: Blank (Anopheles stephensi; release rate 35 mg/day, PE-Bag) | Number of mosquitoes in each arm: Bottom (Anopheles stephensi; release rate 35 mg/day, PE-Bag) | Number of mosquitoes in each arm: Repellent (Anopheles stephensi; release rate 35 mg/day, PE-Bag) | SAI (Spatial Activity Index) (Anopheles stephensi; release rate 35 mg/day) | GC-EAD antennal activity [2] | GC-EAD antennal activity [3]
C=C1C2CCC3[C@H]2C(C)(C)CCC[C@]13C (single isomer, unassigned; (+)) [(+)-Longifolene] | 0.55 | 5 | 17 | 41 | 9 | 23 | 29 | 0.44 | – | – | – | – | – | – | –
C=C1CC/C=C(\C)CC[C@@H]2[C@@H]1CC2(C)C [β-Caryophyllene, β-caryophyllene] | 0.57 | 9 | 33 | 25 | 19 | 23 | 26 | 0.10 | EAD-active | 22 | 43 | 5 | 0.63 | active on at least one of the insects tested | elicited EAD-activity
C=C1CC/C=C(/C)CC[C@@H]2[C@@H]1CC2(C)C [Isocaryophyllene, isocaryophyllene] | 0.23 | 40 | 64 | 34 | 8 | 21 | 26 | 0.45 | – | – | – | – | – | – | –
